Measurements: ChEMBL document CHEMBL1201862, “PubChem BioAssay data set” (2004)
Calls of active or inactive are those of the source.

Tests used:
[1] = intracellular Trypanosoma cruzi inhibitors in host cells – cell-based, plate reader, cherry-pick samples, set 3, dose response (AID 651818); type: functional;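 note: compounds incubated with infected cells for about four days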
Estrogen receptor beta = Estrogen receptor beta (Homo sapiens, UniProt Q92731);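 note: recombinant ER-beta bound to coactivator SRC1 peptide in presence of estradiol agonist; inhibitors block coactivator peptide binding and lower the FRET signal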
[2] = target: DNA dC->dU-editing enzyme APOBEC-3G (Homo sapiens, UniProt Q9HC16); assay: Dose Response confirmation of small molecule APOBEC3G DNA Deaminase Inhibitors via a fluorescence-based single-stranded DNA deaminase assay. [Related pubchem assays (depositor defined):AID493012, AID493028]; type: functional
[3] = CRF-BP/CRF-R2 complex antagonists, dose response, cell-based, uHTS hits, 384-well (AID 651639); type: functional, Homo sapiens; conditions: read-out: IC50_Mean
[4] = target: T1, Corticotropin-releasing factor receptor 2/Corticotropin-releasing factor-binding protein (Homo sapiens, UniProt P24387+Q13324); assay: activators of CRF receptor 2 with binding protein – uHTS hits, confirmation (AID 602473); type: functional; conditions: read-out: EC50_Mean
T1 sequence (Q13324 whole entry): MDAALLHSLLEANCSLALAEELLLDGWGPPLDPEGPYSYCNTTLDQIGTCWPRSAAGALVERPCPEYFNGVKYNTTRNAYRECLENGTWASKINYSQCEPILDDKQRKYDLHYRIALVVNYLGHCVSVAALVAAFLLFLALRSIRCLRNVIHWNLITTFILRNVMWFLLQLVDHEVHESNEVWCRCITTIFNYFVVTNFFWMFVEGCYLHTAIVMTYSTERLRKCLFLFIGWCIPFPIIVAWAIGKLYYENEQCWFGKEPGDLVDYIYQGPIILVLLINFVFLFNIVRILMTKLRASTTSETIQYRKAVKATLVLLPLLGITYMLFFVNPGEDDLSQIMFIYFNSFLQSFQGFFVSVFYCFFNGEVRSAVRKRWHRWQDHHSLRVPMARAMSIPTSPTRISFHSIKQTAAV
T1 sequence (P24387 whole entry): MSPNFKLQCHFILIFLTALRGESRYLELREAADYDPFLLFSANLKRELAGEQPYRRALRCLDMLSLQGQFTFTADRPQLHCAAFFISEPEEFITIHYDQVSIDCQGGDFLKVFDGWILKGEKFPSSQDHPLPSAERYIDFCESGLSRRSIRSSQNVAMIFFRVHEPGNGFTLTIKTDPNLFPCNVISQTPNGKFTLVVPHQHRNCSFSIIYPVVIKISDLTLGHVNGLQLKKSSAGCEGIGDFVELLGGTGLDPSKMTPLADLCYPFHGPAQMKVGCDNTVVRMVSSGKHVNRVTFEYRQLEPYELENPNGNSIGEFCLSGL

[5] = target: T1, Corticotropin-releasing factor receptor 2/Corticotropin-releasing factor-binding protein; assay: Dose Response confirmation of uHTS hits for small molecule antagonists of the CRF-binding protein and CRF-R2 receptor complex.; type: functional; conditions: read-out: IC50_Mean
cells = type: functional
P388 = assay: cells; type: functional; conditions: Mus musculus
Paired box protein Pax-8 = Paired box protein Pax-8 (Homo sapiens, UniProt Q06710); assay: inhibitors of PAX8-driven TPO luciferase reporter, dose response, RMG-I cells, cherry-pick (AID 687027); type: functional, cell-based;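 note: luciferase reporter driven by Pax8 target thyroperoxidase promoter measured by SteadyGlo luminescence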
SN12K1 = assay: cells; type: functional; conditions: Homo sapiens
P388/ADR = assay: cells; type: functional; conditions: Mus musculus
Cysteine protease ATG4B = target: T2, Cysteine protease ATG4B (Homo sapiens, UniProt Q9Y4P1); type: functional;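 note: Fluorescence-based dose-response confirmation assay measuring inhibition of ATG4B activity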
T2 sequence (Q9Y4P1 whole entry): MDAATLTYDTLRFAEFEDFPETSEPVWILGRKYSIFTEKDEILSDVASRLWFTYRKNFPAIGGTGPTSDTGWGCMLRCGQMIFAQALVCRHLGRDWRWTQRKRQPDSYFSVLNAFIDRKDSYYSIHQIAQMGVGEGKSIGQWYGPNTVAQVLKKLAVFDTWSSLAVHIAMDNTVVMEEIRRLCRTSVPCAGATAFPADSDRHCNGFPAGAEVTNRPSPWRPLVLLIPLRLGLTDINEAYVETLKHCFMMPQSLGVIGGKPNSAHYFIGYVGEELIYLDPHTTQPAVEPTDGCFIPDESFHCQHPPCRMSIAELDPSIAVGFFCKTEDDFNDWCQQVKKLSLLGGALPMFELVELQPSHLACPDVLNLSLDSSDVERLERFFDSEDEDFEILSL

Phospholipase A2 = Phospholipase A2 (Homo sapiens, UniProt P04054); type: functional;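 note: confirmatory dose-response counterscreen on phospholipase A2, testing hits that came from an ultra-high-throughput screen for ATG4B inhibitors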
[6] = P. falciparum 3D7-ScDHODH growth inhibitors, dose response, SYBR Green, dry powder samples (AID 1159570); type: functional, cell-based;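 note: parasite growth measured after 72 hours of compound exposure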
[7] = P. falciparum ATP4 D1247Y mutant growth inhibitors, dose response, NITD609-resistant line, SYBR Green, dry powder (AID 1159571); type: functional, cell-based;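 note: parasites synchronized at ring stage by sorbitol before testing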
[8] = P. falciparum Dd2 growth inhibitors, dose response, SYBR Green, cherry-picked samples (AID 1159567); type: functional, cell-based
[9] = P. falciparum Dd2 growth inhibitors, dose response, SYBR Green, dry powder samples (AID 1159566); type: functional, cell-based;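 note: potency for growth inhibition with lower SYBR green DNA signal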
[10] = target: Glyceraldehyde-3-phosphate dehydrogenase (Homo sapiens, UniProt P04406)
[11] = target: T3, Alkaline phosphatase, tissue-nonspecific isozyme (Homo sapiens, UniProt P05186); assay: human TNAP enzyme inhibitors, SAR follow-up, biochemical, luminescent, dose response (AID 1056)
T3 sequence (P05186 whole entry): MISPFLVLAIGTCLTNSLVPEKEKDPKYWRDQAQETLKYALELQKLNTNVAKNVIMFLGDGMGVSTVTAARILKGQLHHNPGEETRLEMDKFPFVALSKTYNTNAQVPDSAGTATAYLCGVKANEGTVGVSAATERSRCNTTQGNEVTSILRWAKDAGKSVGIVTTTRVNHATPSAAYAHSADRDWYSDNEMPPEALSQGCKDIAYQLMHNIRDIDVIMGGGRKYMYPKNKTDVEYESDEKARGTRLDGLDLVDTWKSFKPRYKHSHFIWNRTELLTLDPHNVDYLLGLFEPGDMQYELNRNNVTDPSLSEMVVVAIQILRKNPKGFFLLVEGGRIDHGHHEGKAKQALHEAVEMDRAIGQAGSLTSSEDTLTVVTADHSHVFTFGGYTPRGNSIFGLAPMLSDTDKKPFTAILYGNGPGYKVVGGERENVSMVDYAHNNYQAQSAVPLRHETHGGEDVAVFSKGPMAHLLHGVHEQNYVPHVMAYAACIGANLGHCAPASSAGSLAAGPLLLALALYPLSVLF

[12] = target: Induced myeloid leukemia cell differentiation protein Mcl-1 (Homo sapiens, UniProt Q07820); type: functional
[13] = target: T4, Heat shock factor protein 1 (Mus musculus, UniProt P38532); assay: HSF1 potentiators in luciferase reporter cells, confirmation, cell-based, NIH3T3, luminescence, dose retest (AID 435004); type: functional;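 note: stress induced by proteasome inhibitor MG132 added 30 min after compound; luciferase reporter driven by HSF1 response element in NIH3T3 cells; actives raise luminescence as potentiators of the MG132 stress response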
T4 sequence (P38532 whole entry): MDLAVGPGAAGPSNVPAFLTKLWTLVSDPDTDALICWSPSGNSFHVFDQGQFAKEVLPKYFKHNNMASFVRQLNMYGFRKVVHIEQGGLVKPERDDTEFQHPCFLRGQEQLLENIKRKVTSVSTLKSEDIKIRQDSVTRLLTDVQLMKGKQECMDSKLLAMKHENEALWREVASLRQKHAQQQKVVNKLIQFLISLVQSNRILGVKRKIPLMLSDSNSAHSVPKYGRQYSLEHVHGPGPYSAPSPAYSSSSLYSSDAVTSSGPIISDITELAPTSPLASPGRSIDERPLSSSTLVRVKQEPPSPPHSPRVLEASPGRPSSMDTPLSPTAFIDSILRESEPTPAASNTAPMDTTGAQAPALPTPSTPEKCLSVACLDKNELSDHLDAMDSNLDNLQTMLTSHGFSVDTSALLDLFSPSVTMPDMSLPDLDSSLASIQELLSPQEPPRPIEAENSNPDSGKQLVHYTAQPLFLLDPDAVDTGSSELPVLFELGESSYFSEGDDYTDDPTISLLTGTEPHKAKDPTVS

[14] = inhibitors of HIV Env-driven cell fusion, dose response, cherry-pick (AID 652057); type: functional, cell-based
[15] = HepG2 cell cytotoxicity, dose response, cytotoxicity control for Shn3 inhibitor project, CellTiter-Glo, cherry-picked (AID 624134); type: functional, cell-based
[16] = Shn3 3'UTR reporter inhibitors, dose response, cell-based, Clone20 osteoblasts, firefly luciferase, cherry-picked (AID 624132); type: functional;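 note: firefly luciferase luminescence from reporter carrying the Shn3 3'UTR in osteoblasts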
[17] = inhibitors of clade B AD8 Env fusion, dose response, cell-based, cherry-pick (AID 652062); type: functional;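 note: luciferase signal from cell-cell fusion driven by HIV-1 clade B AD8 Env; potency is for inhibitors of fusion seen as a drop in luminescence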
[18] = control 3'UTR Renilla luciferase suppression, dose response, counter-screen for Shn3 inhibitor project, cell-based, Clone20-Shn3RL, cherry-picked (AID 624133); type: functional
[19] = ZM109 Env clade C HIV-1 fusion inhibitors, dose response, HeLa effector, CEM target cells, luciferase, cherry-pick (AID 652058); type: functional, cell-based

Sequence of Estrogen receptor beta (Q92731 whole entry): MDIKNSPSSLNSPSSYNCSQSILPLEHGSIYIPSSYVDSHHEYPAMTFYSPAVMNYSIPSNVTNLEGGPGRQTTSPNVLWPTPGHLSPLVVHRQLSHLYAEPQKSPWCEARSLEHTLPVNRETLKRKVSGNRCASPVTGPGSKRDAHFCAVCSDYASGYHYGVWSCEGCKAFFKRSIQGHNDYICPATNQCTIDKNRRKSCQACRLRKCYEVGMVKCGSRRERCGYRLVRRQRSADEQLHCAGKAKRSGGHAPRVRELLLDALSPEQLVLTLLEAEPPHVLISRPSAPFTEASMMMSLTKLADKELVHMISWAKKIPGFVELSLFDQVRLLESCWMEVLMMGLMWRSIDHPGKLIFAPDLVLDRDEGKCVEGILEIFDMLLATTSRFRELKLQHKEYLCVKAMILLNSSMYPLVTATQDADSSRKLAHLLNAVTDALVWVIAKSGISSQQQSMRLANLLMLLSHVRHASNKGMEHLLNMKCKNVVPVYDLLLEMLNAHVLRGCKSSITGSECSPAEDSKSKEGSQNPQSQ
Sequence of Induced myeloid leukemia cell differentiation protein Mcl-1 (Q07820 whole entry): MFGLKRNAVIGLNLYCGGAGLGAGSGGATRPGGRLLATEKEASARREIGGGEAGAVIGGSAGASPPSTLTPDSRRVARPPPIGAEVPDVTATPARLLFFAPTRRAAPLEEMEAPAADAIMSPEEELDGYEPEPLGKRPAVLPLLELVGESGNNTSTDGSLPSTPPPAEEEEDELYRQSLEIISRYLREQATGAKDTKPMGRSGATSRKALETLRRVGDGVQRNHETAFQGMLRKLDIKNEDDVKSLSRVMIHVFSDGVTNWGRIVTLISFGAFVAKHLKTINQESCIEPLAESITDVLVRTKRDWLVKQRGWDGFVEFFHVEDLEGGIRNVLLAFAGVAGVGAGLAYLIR
Sequence of DNA dC->dU-editing enzyme APOBEC-3G (Q9HC16 whole entry): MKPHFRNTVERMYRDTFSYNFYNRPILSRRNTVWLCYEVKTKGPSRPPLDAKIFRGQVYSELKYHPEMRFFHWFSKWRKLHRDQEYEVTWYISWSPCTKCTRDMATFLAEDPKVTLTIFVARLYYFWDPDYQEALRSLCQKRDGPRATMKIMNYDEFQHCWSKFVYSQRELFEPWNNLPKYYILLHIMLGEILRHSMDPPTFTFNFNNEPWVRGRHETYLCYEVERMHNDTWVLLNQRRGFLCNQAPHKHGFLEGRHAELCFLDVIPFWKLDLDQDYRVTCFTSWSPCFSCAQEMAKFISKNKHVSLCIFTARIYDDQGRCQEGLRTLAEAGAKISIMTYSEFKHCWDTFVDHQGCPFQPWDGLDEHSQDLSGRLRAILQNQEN
Sequence of Phospholipase A2 (P04054 whole entry): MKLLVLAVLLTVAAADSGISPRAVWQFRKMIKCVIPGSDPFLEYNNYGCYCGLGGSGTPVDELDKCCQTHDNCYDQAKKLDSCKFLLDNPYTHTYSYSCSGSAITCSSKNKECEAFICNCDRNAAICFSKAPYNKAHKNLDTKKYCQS
Sequence of Glyceraldehyde-3-phosphate dehydrogenase (P04406 whole entry): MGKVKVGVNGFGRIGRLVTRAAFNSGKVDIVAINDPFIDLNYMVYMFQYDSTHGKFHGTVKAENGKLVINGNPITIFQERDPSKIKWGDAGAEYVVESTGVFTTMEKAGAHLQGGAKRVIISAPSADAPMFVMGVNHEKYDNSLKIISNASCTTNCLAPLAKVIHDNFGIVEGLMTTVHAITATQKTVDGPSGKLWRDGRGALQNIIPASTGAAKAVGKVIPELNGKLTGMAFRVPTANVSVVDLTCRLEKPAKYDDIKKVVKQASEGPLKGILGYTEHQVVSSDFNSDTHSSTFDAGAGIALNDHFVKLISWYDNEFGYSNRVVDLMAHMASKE
Sequence of Paired box protein Pax-8 (Q06710 whole entry): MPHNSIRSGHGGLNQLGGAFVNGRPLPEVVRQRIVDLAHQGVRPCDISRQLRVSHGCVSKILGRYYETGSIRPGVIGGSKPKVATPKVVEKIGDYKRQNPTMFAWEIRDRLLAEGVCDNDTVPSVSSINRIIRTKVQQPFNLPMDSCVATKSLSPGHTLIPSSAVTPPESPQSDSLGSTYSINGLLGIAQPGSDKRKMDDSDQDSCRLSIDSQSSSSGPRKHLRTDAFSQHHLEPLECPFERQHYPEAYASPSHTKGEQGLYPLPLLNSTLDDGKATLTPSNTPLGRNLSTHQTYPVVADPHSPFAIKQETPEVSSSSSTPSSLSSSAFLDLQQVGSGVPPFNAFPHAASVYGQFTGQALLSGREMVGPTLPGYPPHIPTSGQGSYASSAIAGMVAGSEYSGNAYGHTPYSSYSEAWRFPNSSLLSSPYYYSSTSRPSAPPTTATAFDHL

C[C@H](CO)N1C[C@H](C)[C@H](CN(C)Cc2ccc(C(=O)Nc3ccccc3N)cc2)Oc2ccc(NC(=O)C3CC3)cc2CC1=O
AC50 [1]: 2.66 µM (active)

NS(=O)(=O)c1ccc(CCNC2CC(=O)N(CCc3ccccc3)C2=O)cc1 (configuration not stated)
IC50 (Estrogen receptor beta): > 50 µM (not active)

O=[N+]([O-])c1ccc(N2CCN(C(=S)c3cccc([N+](=O)[O-])c3)CC2)cc1
IC50 [2]: 47.7 µM (active)

Cc1ccc2cccc(Oc3ncnc4scc(-c5ccccc5)c34)c2n1
IC50 [3]: 9.74 µM (active) | EC50 [4]: > 53 µM (inactive) | IC50 [5]: 7.86 µM (active)

Cc1ccc(S(=O)(=O)N(C)C[C@H]2Oc3c(NC(=O)c4nc5ccccc5s4)cccc3C(=O)N([C@H](C)CO)C[C@@H]2C)cc1
AC50 [1]: 0.839 µM (active)

CCCCNC(=O)COC(=O)c1cc(F)c(F)cc1Cl
IC50 (cells): 8.58 µM (active)

COc1ccc(Cc2nnc(S)n2C)cc1Br
IC50 [2]: 18.9 µM (active)

CC(C)CCCCCCCCCCCCC(=O)NCC(=O)NC1C(C)OC(Nc2[nH]cnc3ncnc2-3)C(O)C1O (configuration not stated)
GI50 (P388): 0.01 µM (active) | AC50 (Paired box protein Pax-8): < 0.26 µM (active) | GI50 (SN12K1): 0.01 µM (active) | GI50 (P388/ADR): 0.01 µM (active)

O=C(COc1ccccc1-c1ccccc1)NCc1cccc(Cl)c1
IC50 (Cysteine protease ATG4B): 11.4 µM (active) | IC50 (Phospholipase A2): 7.72 µM (active)

COc1ccc(NC(=O)Nc2cccc3c2O[C@@H](CN(C)Cc2ccc(C(=O)O)cc2)[C@@H](C)CN([C@@H](C)CO)C3=O)cc1
AC50 [1]: 20 µM (inactive)

N#Cc1ccc(CN(Nc2ccccc2)c2ccccc2)cc1
IC50 [3]: 10 µM (active) | EC50 [4]: > 53 µM (inactive) | IC50 [5]: 14.3 µM (active)

COc1ccccc1S(=O)(=O)N(C)C[C@@H]1OCc2ccccc2-c2c(n(C)c3ccccc23)C(=O)N([C@@H](C)CO)C[C@@H]1C
AC50 [6]: 0.507 µM (active) | AC50 [7]: 0.44 µM (active) | AC50 [8]: 2.19 µM (active) | AC50 [9]: 0.445 µM (active)

COc1ccc(S(=O)(=O)Nc2ccc3ccccc3c2)cc1
IC50 [10]: > 100 µM (not active) | IC50 [11]: > 100 µM (inactive)

O=C(CNC(=O)c1ccco1)OCc1ccc(Cl)cc1
IC50 (Estrogen receptor beta): > 50 µM (not active)

CCOC(=O)c1c(NC(=O)c2cc(-c3ccc(O)cc3)on2)sc(C(C)=O)c1C
IC50 [12]: 3.69 µM (active)

O=C(CN1C(=O)/C(=C2\SC(=S)N(C3CCS(=O)(=O)C3)C2=O)c2ccccc21)Nc1ccccc1 (configuration not stated)
IC50 [12]: 5.8 µM (active)

COc1ccc(C(=O)COC(=O)c2cccnc2SC)cc1
IC50 [3]: 3.77 µM (active) | EC50 [4]: > 53 µM (inactive) | IC50 [5]: 1.85 µM (active) | EC50 [13]: > 260 µM (inactive)

O=C(Oc1c(Br)cc([N+](=O)[O-])cc1Br)c1cccnc1
IC50 [3]: > 20 µM (inactive) | EC50 [4]: > 53 µM (inactive) | IC50 [5]: 9.69 µM (active)

Cn1c(COc2ccccc2)nnc1SCC(=O)c1cccc([N+](=O)[O-])c1
IC50 [3]: 7.77 µM (active) | EC50 [4]: > 53 µM (inactive) | IC50 [5]: 23.4 µM (active)

O=C1Nc2cc(Cl)c(Cl)cc2N(O)N1c1cc(Cl)cc(Cl)c1
IC50 (Cysteine protease ATG4B): 14.5 µM (active) | IC50 (Phospholipase A2): 13.7 µM (active)

C[C@@H]1CN([C@H](C)CO)C(=O)Cc2cc(NC(=O)Nc3ccc(C(F)(F)F)cc3)ccc2O[C@@H]1CN(C)S(=O)(=O)c1ccccc1
AC50 [1]: 4.23 µM (active)

Cc1ccccc1Cn1ccc(NC(=O)c2cc3ncc(Br)cn3n2)n1
IC50 [3]: 2.65 µM (active) | EC50 [4]: > 53 µM (inactive) | IC50 [5]: < 0.368 µM (active)

CSc1ccc(CN(C)C(=O)c2cccc(S(=O)(=O)N3CCN(Cc4ccccc4)CC3)c2)cc1
AC50 [14]: 10.3 µM (active) | AC50 [15]: 64.6 µM (active) | AC50 [16]: 2.89 µM (active) | AC50 [17]: 8.39 µM (active) | AC50 [18]: 14.3 µM (active) | AC50 [19]: 10.3 µM (active)

C[C@@H]1CCCCO[C@@H](CN(C)Cc2ccc(Cl)c(Cl)c2)[C@@H](C)CN([C@H](C)CO)C(=O)c2cc(NS(=O)(=O)c3ccccc3)ccc2O1
AC50 [1]: 5.37 µM (active)

CCn1cc(SCC(=O)NCc2ccc3c(c2)OCO3)c2ccccc21
IC50 (Estrogen receptor beta): > 50 µM (not active)
